In PubChem BioAssay AID1850 (Southern Research Specialized Biocontainment Screening …, 2009) one finds IC50 data, which are given here for 103 compounds.

Structures are written as SMILES. pIC50: −log10 of the molar value. “And” between values parts separate entries of the source, which are not always exact repeats. Equal values may be shown once.

This test relates to Salmonella Typhi PhoP-promoter GFP reporter, fluorescence, 4 h. Put plainly: PhoP regulon inhibitors, Salmonella typhi PhoP promoter GFP reporter, confirmatory (AID 1850).
Turning to `N=c1n(CCN2CCCCC2)c2ccccc2n1CC(=O)c1ccc(Cl)c(Cl)c1`, the pIC50 is 4.46.

Take `NC1=NC[C@H](Cc2ccc(O)cc2)N1CCc1cccc2ccccc12`: the pIC50 was 4.30.

For the compound `O=C(NC(=S)NNC(=O)c1cnccn1)c1ccc(F)cc1`, the negative logarithm of the IC50 (pIC50) was 4.44.

As to `CC(=O)c1cc(O)c2ccccc2c1O`, the pIC50 is 3.95.

For the compound `COc1cc(C)c(Cc2cnc(N)nc2N)cc1OC`, the pIC50 is 5.54.

Turning to `CCCCCOc1ccc(C)cc1CN(CCCl)CCCl`, the negative logarithm of the IC50 (pIC50) was 4.52.

With `CN(Cc1ccccc1O)CC1CCCN(CCc2ccc(Cl)cc2)C1` (stereo not drawn), the pIC50 was 4.01.

`Cc1ccc(C(=O)N2C(=S)C(c3ccc(F)cc3)=NC23CCN(C)CC3)cc1`: the pIC50 was 3.93.

On to `COc1c(N2CCN[C@H](C)C2)c(F)cc2c(=O)c(C(=O)O)cn(C3CC3)c12`, for which the pIC50 was > 6.64.

`O=C(CC(=O)c1c(F)cccc1Cl)c1ccccc1O`: the negative logarithm of the IC50 (pIC50) was 4.29.

`CC(=O)Nc1cccc(NC(=O)Nc2ccc(F)cc2F)c1`: the pIC50 is 4.39.

Take `CN(C)CCOCCOc1ccc(Cl)c2ccccc12`: the pIC50 was 3.99.

As for `CCCOc1ccc(C(=O)NNC(=S)NC(=O)c2ccco2)cc1`, the pIC50 is 4.13.

`C/C(=N\NC(=O)c1ccc(Cl)cc1)c1ccccn1`: the pIC50 was 4.48.

Take `CNCCCC1c2ccccc2C=Cc2ccccc21`: the pIC50 is 3.87.

Regarding `Cc1ccc2c(c1)c1c(n2CC(O)CN2CCC(C)CC2)CCCC1` (stereo not drawn), the pIC50 is 4.11.

On to `O=Nc1c(O)c2ccccc2c2ccccc12`, for which the pIC50 is 4.70.

In the case of `CN1CCN(CCCN2c3ccccc3Sc3ccc(Cl)cc32)CC1`, the pIC50 was 4.25 and 4.46.

Take `CCCCCC(=O)NNC(=S)NC(C)=O`: the negative-log IC50 (pIC50) is 4.48.

Consider `Cc1ccc(C(=O)O)cc1N=Cc1cc(Br)cc(Br)c1O`, for which the negative logarithm of the IC50 (pIC50) is 4.56.

On to `C=CC1=C(C(=O)O)N2C(=O)[C@@H](NC(=O)/C(=N/OCC(=O)O)c3csc(N)n3)[C@H]2SC1`, for which the pIC50 was 4.76.

Turning to `O=C(CN1CC(c2ccccc2)CC1=O)N/N=C/c1cc(Br)ccc1O` (stereo not drawn), the pIC50 was 4.18.

As to `CCCCCCOC(=O)C[N+](C)(C)CCOC1CC2CCC1(C)C2(C)C` (stereo not drawn), the pIC50 was 4.44.

Regarding `C#CCOCCOCCOCCNc1nc(N2CCN(C(=O)[C@H](Cc3cc4ccccc4[nH]3)n3cc([C@@H](N)CC(C)C)nn3)CC2)nc(N2CCN(C(=O)[C@H](Cc3cc4ccccc4[nH]3)n3cc([C@@H](N)CC(C)C)nn3)CC2)n1`, the pIC50 is 4.40.

With `CC(C)(c1ccccc1)c1ccc(OCCCNCCO)cc1`, the pIC50 was 4.14.

Take `O=C(OCC(=O)N1CCOCC1)c1ccc[nH]c1=O`: the pIC50 was 4.44.

On to `CN(C)CCCNc1cc(C(C)(C)C)nc2c(-c3ccccc3)cnn12`, for which the pIC50 was 4.50.

In the case of `c1ccc2cc3c(NCCN4CCOCC4)ccnc3cc2c1`, the pIC50 is 4.11.

With `O=C(NC(=S)NNC(=O)c1cccs1)c1ccco1`, the pIC50 was 4.41.

For the compound `Oc1cccc(C=NCc2ccccc2)c1O`, the pIC50 is 4.29.

As for `COc1cccc(-c2nnc(NC(=O)c3ccc(Cl)s3)o2)c1`, the negative-log IC50 (pIC50) was 3.99.

On to `OCCN1CCN(Cc2cc(Cl)c3cccnc3c2O)CC1`, for which the pIC50 was 4.12.

For `CCn1cc(C(=O)O)c(=O)c2cc3c(cc21)OCO3`, the negative-log IC50 (pIC50) was 4.36.

For `OC(c1cc(C(F)(F)F)nc2c(C(F)(F)F)cccc12)C1CCCCN1` (stereo not drawn), the negative logarithm of the IC50 (pIC50) was 4.69.

For `CC1COc2c(N3CCN(C)CC3)c(F)cc3c(=O)c(C(=O)O)cn1c23` (stereo not drawn), the pIC50 is 6.51.

Take `Clc1ccc(OCCCNCc2ccccc2)c(Br)c1`: the pIC50 was 4.42.

As for `Nc1ncncc1-c1ccc(Cl)cc1`, the pIC50 is 3.84.

Turning to `CCn1cc(C(=O)O)c(=O)c2cc(F)c(N3CCN(C(=S)NC(=O)c4ccccc4C)CC3)cc21`, the pIC50 is 4.83.

For `Cc1nc(N)nc(N)c1CCCc1ccc(Cl)c(Cl)c1`, the pIC50 is 4.44.

Regarding `COc1ccc(/C=C/c2cc(-c3ccc(C)cc3)o[n+]2C)cc1`, the pIC50 was 4.43.

As to `CCCCCCCCCCCCOC(=O)C[N+](C)(C)C`, the negative-log IC50 (pIC50) was 4.52.

With `O[C@@H](c1cc(C(F)(F)F)nc2c(C(F)(F)F)cccc12)[C@H]1CCCCN1`, the negative-log IC50 (pIC50) was 4.40.

Consider `O=C(CSc1nc2ccccc2s1)N/N=C/c1cc([N+](=O)[O-])ccc1O`, for which the pIC50 is 4.14.

Regarding `CC(=O)NC(c1ccc2ccccc2c1)c1ccc2cccnc2c1O` (stereo not drawn), the negative logarithm of the IC50 (pIC50) was 3.98.

Regarding `CO[C@@]1(NC(=O)C2SC(=C(C(N)=O)C(=O)O)S2)C(=O)N2C(C(=O)O)=C(CSc3nnnn3C)CS[C@@H]21` (stereo partly drawn), the pIC50 was 5.03.

For `Clc1ccc(C[n+]2cc(-c3ccc(Cl)cc3)n3c2CCC3)cc1`, the pIC50 is 4.28.

In the case of `COc1ccc(/C=C/C(=O)NC(=S)NNC(=O)c2cnccn2)cc1`, the negative logarithm of the IC50 (pIC50) was 4.30.

As to `c1ccc(CN2CCN(c3ncnc4c3[nH]c3ccccc34)CC2)cc1`, the negative logarithm of the IC50 (pIC50) was 4.42.

As to `COc1c(N2CCNC(C)C2)c(F)cc2c(=O)c(C(=O)O)cn(C3CC3)c12` (stereo not drawn), the pIC50 was 6.54.

In the case of `O=C(NNC(=S)NC(=O)c1ccccc1)c1ccc(O)cc1`, the pIC50 was 4.22.

Take `CCOC(=O)N1CCC(=NNc2ccnc3cc(Cl)ccc23)CC1`: the pIC50 is 4.45.

For the compound `O=C(Oc1c(Cl)cc(Cl)c2cccnc12)c1cccc([N+](=O)[O-])c1`, the pIC50 was 5.08.

Turning to `O=C(N/N=C/c1cc(O)ccc1Br)c1cccnc1`, the pIC50 is 4.41.

Turning to `Cc1cc(NC2CCCCC2)nc(NCc2ccccc2)n1`, the pIC50 is 4.47.

As to `C=CCNc1ncnc2c1[nH]c1ccc(Cl)cc12`, the pIC50 is 4.74.

As for `COC(=O)c1sccc1NC(=S)NCc1ccc(Cl)cc1`, the pIC50 was 4.43.

Turning to `NC(N)=N/N=C/c1ccc(OCc2ccccc2Cl)cc1`, the pIC50 was 4.51.

In the case of `O=C(N/N=C\c1ccc(Cl)s1)c1cccs1`, the pIC50 was 4.10.

Take `COc1ccccc1CNCCc1ccc(F)cc1`: the pIC50 was 4.61.

As for `COc1cc(CNCCc2c[nH]c3ccccc23)ccc1OCc1ccc(F)cc1`, the pIC50 is 4.29.

Regarding `O=[N+]([O-])c1ccc(O)c(/C=N/Nc2ccccn2)c1`, the pIC50 is 4.88.

As to `O=[N+]([O-])c1cc(/C=N/Nc2nc3ccccc3[nH]2)c(O)cc1O`, the pIC50 was 4.71.

Regarding `O=C(N/N=C/c1cc(Br)cc(Br)c1O)c1ccncc1`, the pIC50 was 4.36.

Regarding `CCCCOc1ccc(Br)cc1CSC(=N)N`, the negative logarithm of the IC50 (pIC50) is 4.46.

`Clc1ccc2[nH]c3c(c2c1)CCc1cn[nH]c1-3`: the pIC50 was 4.10.

`C1=C(CCNCc2ccccc2)CCCC1`: the pIC50 is 5.20.

`CCc1ccc(NC(=O)Nc2ccncc2)cc1`: the pIC50 is 4.15.

For `Cc1ccccc1Nc1cc(C)c2c(O)cccc2n1`, the pIC50 is 5.19.

In the case of `O=C(O)c1cn(C2CC2)c2cc(N3CCN(S(=O)(=O)c4ccc5c(c4)OCCO5)CC3)c(F)cc2c1=O`, the pIC50 was 5.12.

As for `COc1ccccc1N1CCN(Cc2ccc(O)c3ncccc23)CC1`, the pIC50 is 4.42.

With `O=C1c2ccccc2NC(c2ccc(-c3ccc(Br)cc3)o2)N1O` (stereo not drawn), the pIC50 is 4.45.

In the case of `Cc1cccc(NC2=NC3(CCCCC3)N=C(N)N2)c1`, the pIC50 is 4.43.

Consider `O=C(/C=C/c1ccccc1Cl)c1ccccc(=O)c1O`, for which the pIC50 is 4.46.

Turning to `Cc1cc(NS(=O)(=O)c2ccc(NC(=O)Nc3cccc(Cl)c3)cc2)no1`, the pIC50 is 3.83.

As for `O=C1CSC(=S)N1c1cccc(O)c1`, the pIC50 was 3.90.

As to `Cc1cc([N+](=O)[O-])nn1CC(=O)N/N=C/c1ccccc1O`, the pIC50 is 4.33.

Take `Clc1ccc2c(c1)C(N1CCNCC1)Cc1ccccc1S2` (stereo not drawn): the pIC50 was 4.45.

Take `CN1CCN(C2=Cc3ccccc3Sc3cc(F)ccc32)CC1`: the pIC50 was 4.18.

On to `CC1CCN(CCCNC(=O)c2ccc3c(=O)n(Cc4ccc(Cl)cc4)c(=S)[nH]c3c2)CC1`, for which the pIC50 is 4.35.

For the compound `OCCN1CCN(C2Cc3cc(Cl)ccc3Sc3ccc(Cl)cc32)CC1` (stereo not drawn) (tested in a mixture with another compound), the pIC50 is 4.46.

On to `Nc1nc(Nc2cccc(F)c2)nc2ccccc12`, for which the pIC50 is 4.64.

`Fc1ccc(CCNCc2ccccc2Cl)cc1`: the pIC50 was 4.13.

In the case of `CCCCCSc1cc(OC)c(CCNC)cc1OC`, the pIC50 is 4.05.

For `CCN1CCCC1CNC(=O)C1CCN(Cc2nc(-c3cccc(Br)c3)oc2C)CC1` (stereo not drawn), the pIC50 is 3.90.

Regarding `CC[C@@H](C)[C@H](CN[C@H](CNC)C(C)C)NC[C@@H](C)c1ccc(CC(C)C)cc1`, the pIC50 is 4.13.

Take `O=C(O)c1cc2c(cn1)[nH]c1ccccc12`: the negative-log IC50 (pIC50) was 4.11.

As to `O=C(N/N=C/c1cc(Cl)ccc1O)c1ccncc1`, the pIC50 is 4.71.

As for `O=C(NNc1nc2ccc(F)cc2s1)c1cccc(F)c1`, the pIC50 is 4.11.

As to `Clc1ccc(C(c2ccc(Cl)cc2)n2cc[n+](CC(OCc3ccc(Cl)cc3Cl)c3ccc(Cl)cc3Cl)c2)cc1` (stereo not drawn), the negative-log IC50 (pIC50) was 4.98.

On to `Cc1ccc(-c2c[n+](CC(=O)Nc3nc(-c4ccccc4)cs3)c3n2CCC3)cc1`, for which the pIC50 was 4.66.

`CN(C)CCCn1c(SCC(=O)N2c3ccccc3Sc3ccccc32)nc2ccccc2c1=O`: the pIC50 is 4.20.

`CN(C)CCNc1oc(COc2ccc(-c3ccccc3)cc2)nc1C#N`: the pIC50 is 4.23.

As for `Oc1c(Br)cc(Br)cc1C=Nc1ccc2[nH]ncc2c1`, the pIC50 was 4.56.

Turning to `Cc1ccc(NC(=O)CN(C)C2CCCCC2)cc1Br`, the pIC50 is 4.09.

For `Cc1ccc(Nc2nc(N)c3ccccc3n2)cc1Cl`, the pIC50 was 4.68.

As for `Cc1ccc(C(OCC(O)CNCc2ccc(F)cc2)c2ccccc2)cc1` (stereo not drawn), the negative-log IC50 (pIC50) was 4.31.

Take `CN1CCN(C2=Cc3cc(Cl)ccc3Sc3cc(F)ccc32)CC1`: the pIC50 is 4.35.

Take `N=c1c2c(n(Cc3ccc(Cl)c(Cl)c3)c3c1CCC3)CCCC2`: the pIC50 is 4.43.

For `Oc1c(CN2CCCCC2)cc(Br)c2cccnc12`, the pIC50 was 4.75.

As for `COc1ccc(CNCCc2ccc(Cl)cc2)cc1OCc1ccccc1`, the pIC50 was 4.18.

For the compound `C#CCOCCOCCOCCNc1nc(N2CCN(C(=O)CCCCCCCCCCNC(=O)[C@H](CCCCN)n3cc(CCO)nn3)CC2)nc(N2CCN(C(=O)CCCCCCCCCCNC(=O)[C@H](CCCCN)n3cc(CCO)nn3)CC2)n1`, the pIC50 was 4.22.

For the compound `NC1=C(Br)C(=O)c2ccccc2C1=O`, the pIC50 was 4.59.

Regarding `COc1ccc(CNCCc2cccc(F)c2)c2ccccc12`, the pIC50 is 4.13.
